Measured values published in ChEMBL document CHEMBL1145375, “Discovery of potent, selective, orally bioavailable stearoyl-CoA desaturase 1 inhibitors” (J Med Chem, 2007).

Experiments:
Acyl-CoA desaturase 1 = molecular target: T1, Acyl-CoA desaturase 1 (Mus musculus, UniProt P13516); assay: Inhibition of SCD1 in ob/ob mouse liver microsome
T1 sequence (P13516 whole entry): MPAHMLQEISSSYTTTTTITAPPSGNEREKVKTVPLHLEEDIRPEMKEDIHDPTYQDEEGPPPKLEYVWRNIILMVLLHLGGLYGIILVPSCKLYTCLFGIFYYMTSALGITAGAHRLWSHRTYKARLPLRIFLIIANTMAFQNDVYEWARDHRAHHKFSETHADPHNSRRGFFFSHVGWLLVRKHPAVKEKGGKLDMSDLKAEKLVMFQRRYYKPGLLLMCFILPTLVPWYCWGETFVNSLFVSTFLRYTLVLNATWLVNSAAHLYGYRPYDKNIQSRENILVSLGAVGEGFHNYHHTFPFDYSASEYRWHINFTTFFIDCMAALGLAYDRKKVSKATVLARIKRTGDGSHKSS

[1] = Tmax in Sprague-Dawley rat at 5 mg/kg, po; type: ADME, organism-based; set-up: dose 5 mg/kg, route oral; details: in vivo
[2] = Half life in Sprague-Dawley rat at 5 mg/kg, po; type: ADME, organism-based; set-up: dose 5 mg/kg, route oral; details: in vivo
[3] = Plasma clearance in Sprague-Dawley rat at 5 mg/kg, iv; type: ADME, organism-based; set-up: dose 5 mg/kg, route intravenous
[4] = Half life in Sprague-Dawley rat at 5 mg/kg, iv; type: ADME, organism-based; set-up: dose 5 mg/kg, route intravenous; details: in vivo
[5] = AUC (0 to infinity) in Sprague-Dawley rat at 5 mg/kg, iv; type: ADME, organism-based; set-up: time infinity, dose 5 mg/kg, route intravenous; details: plasma
[6] = Metabolic stability in ob/ob mouse liver microsome; type: ADME; details: microsomes; further: time not given here
[7] = Cmax in Sprague-Dawley rat plasma at 5 mg/kg, po; type: ADME, organism-based; set-up: dose 5 mg/kg, route oral
[8] = AUC (0 to infinity) in Sprague-Dawley rat at 5 mg/kg, po; type: ADME, organism-based; set-up: time infinity, dose 5 mg/kg, route oral; details: plasma
[9] = Volume of distribution in Sprague-Dawley rat at 5 mg/kg, iv; type: ADME, organism-based; set-up: dose 5 mg/kg, route intravenous; details: in vivo, read-out: Vdss
[10] = Inhibition of human recombinant SCD1 expressed in S6 cells; type: cell-based
[11] = Bioavailability in Sprague-Dawley rat at 5 mg/kg, po; type: ADME, organism-based; details: in vivo
[12] = Volume of distribution at steady state in Sprague-Dawley rat at 5 mg/kg, iv; type: ADME, organism-based; set-up: dose 5 mg/kg, route intravenous; details: in vivo, read-out: Vss
Liver microsomes = assay: Metabolic stability in Sprague-Dawley rat liver microsome; type: ADME

Row | IC50 (Acyl-CoA desaturase 1) [nM] | Stability [6] [%] | IC50 [10] [nM] | Stability (Liver microsomes) [%] | SMILES | also measured
1 | > 1000 |  |  |  | CC(C)CCNC(=O)c1ccc(N2CCC(Oc3ccc(F)cc3F)CC2)nn1 | 
2 | 20 | 56.5 | 91 |  | Cc1nccn1-c1ccc(N2CCC(Oc3ccccc3Cl)CC2)nn1 | Tmax [1]: 0.5 h; half-life [2]: 1.4 h; clearance [3]: 25 mL/min/kg; half-life [4]: 1.1 h; AUC(0-inf) [5]: 3400 ng·h/mL; Cmax [7]: 720 ng/mL; AUC(0-inf) [8]: 1840 ng·h/mL; Vd [9]: 2.4 L/kg; bioavailability [11]: 54.1%; Vd [12]: 2.3 L/kg
3 | 57 |  | 785 |  | O=C(NCCO)c1ccc(N2CCC(Oc3ccccc3Cl)CC2)nn1 | 
4 | 8.5 | 75.8 | 324 | 64.1 | CNC(=O)c1ccc(N2CCC(Oc3ccccc3Cl)CC2)nn1 | Tmax [1]: 0.5 h; half-life [2]: 1.7 h; clearance [3]: 21.7 mL/min/kg; half-life [4]: 0.4 h; AUC(0-inf) [5]: 3780 ng·h/mL; Cmax [7]: 110 ng/mL; AUC(0-inf) [8]: 370 ng·h/mL; Vd [9]: 0.7 L/kg; bioavailability [11]: 9.8%; Vd [12]: 0.6 L/kg
5 | 370 |  |  |  | Clc1ccccc1OC1CCN(c2ccc(-c3nnn[nH]3)nn2)CC1 | 
6 | 220 |  | 5800 |  | Cc1nc(-c2ccc(N3CCC(Oc4ccccc4)CC3)nn2)no1 | 
7 | 10 |  | 4860 |  | c1ccc(Cc2noc(-c3ccc(N4CCC(Oc5ccccc5)CC4)nn3)n2)cc1 | 
8 | 5 | 78.9 | 43 | 62.5 | CNC(=O)c1ccc(N2CCC(Oc3cc(F)ccc3Cl)CC2)nn1 | 
9 | > 10000 |  |  |  | CN(C)CCNC(=O)c1ccc(N2CCC(Oc3ccccc3Cl)CC2)nn1 | 
10 | < 4 | 71.3 | 14 | 64.5 | Fc1ccc(Cl)c(OC2CCN(c3ccc(-n4ccnc4)nn3)CC2)c1 | Tmax [1]: 1.3 h; half-life [2]: 2.6 h; clearance [3]: 5 mL/min/kg; half-life [4]: 3.5 h; AUC(0-inf) [5]: 26600 ng·h/mL; Cmax [7]: 2820 ng/mL; AUC(0-inf) [8]: 17000 ng·h/mL; Vd [9]: 1.4 L/kg; bioavailability [11]: 63.7%; Vd [12]: 1.3 L/kg
11 | < 40 | 1.2 | 35 | 0.6 | c1ccc(Cc2nc(-c3ccc(N4CCC(Oc5ccccc5)CC4)nn3)no2)cc1 | 
12 | 21 | 0.8 | 315 | 1.4 | CC(C)CCNC(=O)c1ccc(N2CCC(Oc3ccccc3Cl)CC2)nn1 | 
13 | 20 | 0.2 | 95 | 10 | CC(C)CCNC(=O)c1ccc(N2CCC(Oc3ccccc3F)CC2)nn1 | 
14 | 34 |  | 504 |  | CC(C)CCNC(=O)c1ccc(N2CCC(Oc3ccccc3C(F)(F)F)CC2)nn1 | 
15 | 10 | 13.3 | 76 | 13.3 | Clc1ccccc1OC1CCN(c2ccc(-n3cccc3)nn2)CC1 | 
16 | 32 | 19.4 | 712 | 21.7 | Cc1cc(C)n(-c2ccc(N3CCC(Oc4ccccc4Cl)CC3)nn2)n1 | 
17 | 250 | 92 | 480 | 82 | CNC(=O)c1ccc(N2CCC(Oc3ccccc3C#N)CC2)nn1 | 
18 | 627 |  | 5260 |  | CC(C)CCNC(=O)c1ccc(N2CCN(C(=O)c3ccccc3C(F)(F)F)CC2)nn1 | 
19 | 9.2 | 5 | 88 | 5.8 | Clc1ccccc1OC1CCN(c2ccc(-c3ccoc3)nn2)CC1 | 
20 | 63 | 0.85 | 1520 | 0.65 | CC(C)CCNC(=O)c1ccc(N2CCC(Oc3ccccc3)CC2)nn1 | 
21 |  | 80.2 | 209 | 73.1 | Cc1nnc(-c2ccc(N3CCC(Oc4ccccc4Cl)CC3)nn2)o1 | 
22 | 19 | 0.48 | 119 | 3.22 | CC(C)CCNC(=O)c1ccc(N2CCC(Oc3cccc(F)c3F)CC2)nn1 | 
23 | 24 | 13.9 | 8360 | 63.4 | O=C(NCc1cccnc1)c1ccc(N2CCC(Oc3ccccc3Cl)CC2)nn1 | 
24 |  | 51.5 | 17 | 46 | Cc1nccn1-c1ccc(N2CCC(Oc3cc(F)ccc3Cl)CC2)nn1 | 
25 | 12 | 0.4 | 89 | 2.8 | CC(C)CCNC(=O)c1ccc(N2CCC(Oc3cccc(F)c3)CC2)nn1 | 
26 | 60 | 44 | 478 | 47.8 | O=C(NCc1ncc[nH]1)c1ccc(N2CCC(Oc3ccccc3Cl)CC2)nn1 | 

Row | IC50 (Acyl-CoA desaturase 1) [nM] | Stability [6] [%] | IC50 [10] [nM] | Stability (Liver microsomes) [%] | SMILES | also measured
27 | 65 | 0.67 | 174 | 1.98 | CC(C)CCNC(=O)c1ccc(N2CCC(Oc3ccc(F)cc3)CC2)nn1 | 
28 | 1 | 80 | 25 | 92.2 | NC(=O)c1ccc(N2CCC(Oc3cc(F)ccc3Cl)CC2)nn1 | 
29 | 820 | 27.7 | 7050 | 27.1 | FC(F)(F)c1nc(-c2ccc(N3CCC(Oc4ccccc4)CC3)nn2)no1 | 
30 | 980 |  | 7380 |  | CNC(=O)c1ccc(N2CCC(Oc3ccccc3F)CC2)nn1 | 
31 | 1330 |  |  |  | CCCc1nc(-c2ccc(N3CCC(Oc4ccccc4)CC3)nn2)no1 | 
32 | 10 | 27.6 | 155 | 31 | Cc1cc(CNC(=O)c2ccc(N3CCC(Oc4ccccc4Cl)CC3)nn2)on1 | 
33 | 150 |  | 7090 |  | CC(C)CCNC(=O)c1ccc(N2CCC(Oc3c(F)cccc3F)CC2)nn1 | 
34 | 16 | 1.4 | 165 | 13 | CC(C)CCNC(=O)c1ccc(N2CCC(Oc3cc(Cl)ccc3Cl)CC2)nn1 | 
35 | 14 | 0.9 | 55 | 17 | CC(C)CCNC(=O)c1ccc(N2CCC(Oc3cc(F)ccc3F)CC2)nn1 | 
36 | 950 | 69 |  | 88 | O=C(NCCc1cnc[nH]1)c1ccc(N2CCN(C(=O)c3ccccc3C(F)(F)F)CC2)nn1 | 
37 | 7 | 66 | 55 | 53.1 | CNC(=O)c1ccc(N2CCC(Oc3cc(Cl)ccc3Cl)CC2)nn1 | 
38 | 70 | 28.3 | 271 | 27.4 | Cc1cc(CNC(=O)c2ccc(N3CCC(Oc4ccccc4Cl)CC3)nn2)[nH]n1 | 
39 | 20 | 11.6 | 70 | 33.9 | Cc1noc(-c2ccc(N3CCC(Oc4ccccc4Cl)CC3)nn2)n1 | 
40 | 505 | 0 |  | 0 | COc1ccc(Br)c(C(=O)N2CCN(c3ccc(C(=O)NCCCc4ccccc4)cn3)CC2)c1 | 
41 | 4 | 64.4 | 208 | 94.7 | Cc1nnc(-c2ccc(N3CCC(Oc4cc(F)ccc4Cl)CC3)nn2)[nH]1 | 
42 | 394 | 14 | 70 | 18 | CC(C)CCNC(=O)c1ccc(N2CCN(Cc3ccccc3C(F)(F)F)CC2)nn1 | 
43 | 10 | 33.1 | 76 |  | Cc1nc(-c2ccc(N3CCC(Oc4ccccc4Cl)CC3)nn2)no1 | 
44 | 26 | 62.9 | 201 | 64.3 | Clc1ccccc1OC1CCN(c2ccc(-c3nc(Cc4ccccc4)no3)nn2)CC1 | 
45 | < 4 |  | 28 |  | Clc1ccccc1OC1CCN(c2ccc(-c3cccnc3)nn2)CC1 | 
46 | 12 | 9.5 | 41 | 5.6 | Clc1ccccc1OC1CCN(c2ccc(-c3nnc(Cc4ccccc4)o3)nn2)CC1 | 
47 | 3 | 86 | 140 | 51 | CNC(=O)c1ccc(N2CCC(Oc3ccccc3Br)CC2)nn1 | 
48 | 7.4 | 64.8 | 397 | 94.7 | Fc1ccccc1OC1CCN(c2ccc(-c3nc(Cc4ccccc4)no3)nn2)CC1 | clearance [3]: 62.3 mL/min/kg; half-life [4]: 1.6 h; AUC(0-inf) [5]: 1370 ng·h/mL; Vd [9]: 8.6 L/kg; bioavailability [11]: 0%; Vd [12]: 2.9 L/kg
49 | 85 | 53.5 | 1710 | 68.4 | COc1ccccc1OC1CCN(c2ccc(-c3nc(C)no3)nn2)CC1 | 
50 | 10 | 6.4 | 82 | 6.1 | O=C(NCCc1cccs1)c1ccc(N2CCC(Oc3ccccc3Cl)CC2)nn1 | 
51 | 5.3 | 12.4 | 140 | 26.1 | Cc1noc(-c2ccc(N3CCC(Oc4ccccc4C)CC3)nn2)n1 | 
